Common to all, as to assay type: biochemical
One experiment addresses T1, Recombinant Human MMP-13 (Homo sapiens, UniProt P45452).
T1 construct: purchased R&D systems 511-MM
The experiment can be described thus: MMP-13 inhibitory activity (MMP-13 specific fluorescent substrate with quencher). Conditions: Experimental Example 3; read-out: IC50 MMP13. The procedure, abridged:
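Recombinant human MMP-13 with test compound, reaction started with quenched fluorogenic peptide 7-MCA-Pro-CHA-Gly-NVal-His-Ala-DPA in Tris-HCl buffer, 1 h at 25 °C, stopped with acetic acid. Fluorescence at Ex 325/Em 405 nm; % inhibition versus enzyme-free and inhibitor-free wells, reported as IC50 (μM).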

Another experiment addresses T2, aggrecanase-1 (Homo sapiens, UniProt O75173).
T2 sequence (O75173 213-837): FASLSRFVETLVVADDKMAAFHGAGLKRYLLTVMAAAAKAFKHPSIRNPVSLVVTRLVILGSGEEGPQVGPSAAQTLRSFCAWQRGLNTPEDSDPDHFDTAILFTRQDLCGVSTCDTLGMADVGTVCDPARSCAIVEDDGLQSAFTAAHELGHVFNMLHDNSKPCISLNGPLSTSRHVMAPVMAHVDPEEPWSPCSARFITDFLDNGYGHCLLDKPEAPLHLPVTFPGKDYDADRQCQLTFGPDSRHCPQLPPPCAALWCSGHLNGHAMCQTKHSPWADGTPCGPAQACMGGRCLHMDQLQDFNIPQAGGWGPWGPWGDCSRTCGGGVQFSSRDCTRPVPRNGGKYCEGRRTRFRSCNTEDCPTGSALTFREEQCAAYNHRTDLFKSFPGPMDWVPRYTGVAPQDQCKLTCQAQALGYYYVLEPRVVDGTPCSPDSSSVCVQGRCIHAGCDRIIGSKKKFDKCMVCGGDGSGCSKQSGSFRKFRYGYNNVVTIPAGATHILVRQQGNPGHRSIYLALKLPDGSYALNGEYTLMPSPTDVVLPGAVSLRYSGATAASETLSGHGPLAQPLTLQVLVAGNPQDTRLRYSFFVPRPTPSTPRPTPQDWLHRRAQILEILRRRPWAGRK
The experiment can be described thus: Aggrecanase-1 inhibitory action (Particle Assay, GAG release from aggrecan-containing polyacrylamide particles). Conditions: Experimental Example 1; read-out: IC50 AG1. The procedure, abridged: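 Enzyme and compound incubated with aggrecan-containing polyacrylamide particles in Tris-HCl buffer at 37° C for 15 h. Released GAG in supernatant measured with 1,9-dimethylmethylene blue at 595 nm against chondroitin sulfate standard; % inhibition from enzyme-free and inhibitor-free wells, reported as TC50 (μM).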

For the next experiment, the target named is T3, MMP-1 (Homo sapiens, UniProt P03956).
T3 sequence (P03956 100-469): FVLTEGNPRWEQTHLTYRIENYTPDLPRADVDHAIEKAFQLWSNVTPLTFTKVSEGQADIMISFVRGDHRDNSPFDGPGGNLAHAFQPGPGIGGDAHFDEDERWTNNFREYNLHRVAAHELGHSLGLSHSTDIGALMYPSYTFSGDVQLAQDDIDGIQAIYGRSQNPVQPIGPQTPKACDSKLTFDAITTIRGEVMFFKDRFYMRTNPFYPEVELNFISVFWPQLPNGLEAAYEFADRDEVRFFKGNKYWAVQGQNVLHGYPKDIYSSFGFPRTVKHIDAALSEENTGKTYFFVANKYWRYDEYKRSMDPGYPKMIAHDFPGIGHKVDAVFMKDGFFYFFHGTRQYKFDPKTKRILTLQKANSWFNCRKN
The experiment can be described thus: MMP-1 inhibitory action (Type I collagen Activity Measurement kit, FITC-labeled collagen type I). Conditions: Experimental Example 2; read-out: IC50 MMP1.

Consider `CCOC(=O)CSCC1(c2ccccc2)CC1(NS(=O)(=O)c1ccc(-c2cc(C(F)(F)F)on2)s1)C(=O)O` (stereo not drawn) [Example 2-409], for which the figures for the IC50 on Recombinant Human MMP-13, at aggrecanase-1 and at MMP-1 were < 100 nM, < 1000 nM and < 1000 nM, respectively.

Take `O=C(O)CSCC1(c2ccccc2)CC1(NS(=O)(=O)c1ccc(-c2cc(C(F)(F)F)on2)s1)C(=O)O` (stereo not drawn) [Example 2-410]: the IC50 on Recombinant Human MMP-13 was ≥ 1000 nM; at aggrecanase-1, < 100 nM; at MMP-1, ≥ 1000 nM.

On to `O=C(O)C1(NS(=O)(=O)c2ccc(-c3ccc(Cl)cc3)s2)C2CCC(O)c3ccccc3C21` (stereo not drawn) [Example 2-411], for which the IC50 was < 100 nM on Recombinant Human MMP-13, < 100 nM on aggrecanase-1 and < 1000 nM on MMP-1.

For `O=C(O)C1(NS(=O)(=O)c2ccc(-c3ccc(Cl)cc3)s2)C2CCC(O)c3ccccc3C21` (stereo not drawn) [Example 2-412], the IC50 on Recombinant Human MMP-13 is < 100 nM; at aggrecanase-1, < 100 nM; on MMP-1, ≥ 1000 nM.

For the molecule `C[C@]1(c2ccccc2)C[C@@]1(NS(=O)(=O)c1ccc(-c2ccc(F)c(Cl)c2)s1)C(=O)O` [Example 2-413], the IC50 is < 1000 nM at Recombinant Human MMP-13, < 100 nM on aggrecanase-1 and ≥ 1000 nM at MMP-1.

On to `C[C@]1(c2ccccc2)C[C@@]1(NS(=O)(=O)c1ccc(-c2ncc(Br)cn2)s1)C(=O)O` [Example 2-414], for which the IC50 is < 1000 nM at Recombinant Human MMP-13, < 1000 nM on aggrecanase-1 and ≥ 1000 nM on MMP-1.

As for `C[C@]1(c2ccccc2)C[C@@]1(NS(=O)(=O)c1ccc(-c2ccc(F)cn2)s1)C(=O)O` [Example 2-416], the IC50 was < 1000 nM at Recombinant Human MMP-13, < 1000 nM on aggrecanase-1 and ≥ 1000 nM at MMP-1.

Turning to `CC1[C@H](c2ccccc2)[C@]1(NS(=O)(=O)c1ccc(-c2cc(N(C)C)on2)s1)C(=O)O` (stereo partly drawn) [Example 2-419], the IC50 at Recombinant Human MMP-13 is < 100 nM; on aggrecanase-1 it was < 100 nM; at MMP-1 it was < 1000 nM.

For `C[C@]1(c2ccccc2)C[C@@]1(NS(=O)(=O)c1ccc(-c2ccc(F)c(C#N)c2)s1)C(=O)O` [Example 2-420], the IC50 is ≥ 1000 nM on Recombinant Human MMP-13, ≥ 1000 nM at aggrecanase-1 and ≥ 10000 nM at MMP-1.

Consider `C[C@]1(c2ccccc2)C[C@@]1(NS(=O)(=O)c1ccc(N2CCOCC2)s1)C(=O)O` [Example 2-421], for which the 50% inhibitory concentration (IC50) is ≥ 1000 nM at Recombinant Human MMP-13, ≥ 1000 nM at aggrecanase-1 and ≥ 10000 nM at MMP-1.

For the molecule `C[C@]1(c2ccccc2)C[C@@]1(NS(=O)(=O)c1ccc(-c2cc(C(F)F)no2)s1)C(=O)O` [Example 2-422], the IC50 at Recombinant Human MMP-13 is < 1000 nM; on aggrecanase-1, < 100 nM; on MMP-1 it was < 1000 nM.

Turning to `CN(C)c1cc(-c2ccc(S(=O)(=O)N[C@@]3(C(=O)O)C[C@]3(C)c3ccccc3)s2)no1` [Example 2-423], the IC50 is < 100 nM at Recombinant Human MMP-13, < 1000 nM on aggrecanase-1 and < 1000 nM at MMP-1.

With `C#Cc1ccc(S(=O)(=O)N[C@@]2(C(=O)O)C(C)[C@@H]2c2ccccc2)s1` (stereo partly drawn) [Example 2-424], the IC50 was < 1000 nM on Recombinant Human MMP-13, ≥ 10000 nM at aggrecanase-1 and < 1000 nM on MMP-1.

Regarding `CC(=O)c1ccc(S(=O)(=O)N[C@@]2(C(=O)O)C(C)[C@@H]2c2ccccc2)s1` (stereo partly drawn) [Example 2-425], the IC50 is ≥ 1000 nM at Recombinant Human MMP-13, ≥ 10000 nM on aggrecanase-1 and ≥ 10000 nM on MMP-1.

As to `CC1[C@H](c2ccccc2)[C@]1(NS(=O)(=O)N1CCN(c2ccc(Cl)cc2)CC1)C(=O)O` (stereo partly drawn) [Example 2-426], the figures for the IC50 on Recombinant Human MMP-13, on aggrecanase-1 and at MMP-1 were < 100 nM, < 1000 nM and ≥ 1000 nM, respectively.

On to `CC1[C@H](c2ccccc2)[C@]1(NS(=O)(=O)c1ccc(Br)s1)C(=O)O` (stereo partly drawn) [Example 2-427], for which the IC50 on Recombinant Human MMP-13 is ≥ 1000 nM; at aggrecanase-1, ≥ 10000 nM; on MMP-1, < 1000 nM.

For `CC1[C@H](c2ccccc2)[C@]1(NS(=O)(=O)N1CCN(c2ccc(C(F)(F)F)cc2)CC1)C(=O)O` (stereo partly drawn) [Example 2-428], the IC50 at Recombinant Human MMP-13 is < 100 nM; on aggrecanase-1 it was < 1000 nM; on MMP-1, ≥ 1000 nM.

Turning to `COCCOCC1(c2ccccc2)CC1(NS(=O)(=O)c1ccc(-c2ccc(Cl)cc2)s1)C(=O)O` (stereo not drawn) [Example 2-429], the IC50 at Recombinant Human MMP-13 was < 1000 nM; on aggrecanase-1 it was < 1000 nM; at MMP-1, ≥ 1000 nM.

Turning to `CN1CCC2C(c3ccccc31)C2(NS(=O)(=O)c1ccc(-c2ccc(Cl)cc2)s1)C(=O)O` (stereo not drawn) [Example 2-430], the IC50 is < 100 nM at Recombinant Human MMP-13, < 100 nM on aggrecanase-1 and ≥ 1000 nM at MMP-1.

Consider `O=C(O)C1(NS(=O)(=O)c2ccc(-c3ccc(Cl)cc3)s2)C2Cc3ccccc3C21` (stereo not drawn) [Example 2-431], for which the IC50 at Recombinant Human MMP-13 is < 1000 nM; at aggrecanase-1, < 1000 nM; at MMP-1 it was ≥ 1000 nM.

For the molecule `CSCC1(c2ccccc2)CC1(NS(=O)(=O)c1ccc(-c2ccc(Cl)cc2)s1)C(=O)O` (stereo not drawn) [Example 2-432], the IC50 at Recombinant Human MMP-13 was < 1000 nM; at aggrecanase-1, < 100 nM; at MMP-1, ≥ 1000 nM.

On to `CC1[C@H](c2ccccc2)[C@]1(NS(=O)(=O)c1ccc(-c2cc(C3CC3)on2)s1)C(=O)O` (stereo partly drawn) [Example 2-433], for which the IC50 at Recombinant Human MMP-13 is < 100 nM; on aggrecanase-1, < 100 nM; on MMP-1 it was < 1000 nM.

For the molecule `C[C@]1(c2ccccc2)C[C@@]1(NS(=O)(=O)c1ccc(-c2ccc(Cl)c(F)c2)s1)C(=O)O` [Example 2-434], the IC50 on Recombinant Human MMP-13 was < 1000 nM; on aggrecanase-1 it was < 100 nM; on MMP-1, ≥ 1000 nM.

As to `CC1[C@H](c2ccccc2)[C@]1(NS(=O)(=O)c1ccc(-c2ccc(Cl)c(F)c2)s1)C(=O)O` (stereo partly drawn) [Example 2-435], the IC50 on Recombinant Human MMP-13 was < 100 nM; at aggrecanase-1, < 100 nM; on MMP-1 it was < 1000 nM.

In the case of `CC1CCC(c2ccc(S(=O)(=O)N[C@@]3(C(=O)O)C[C@]3(C)c3ccccc3)cc2)CC1` (stereo partly drawn) [Example 2-436], the IC50 is ≥ 1000 nM on Recombinant Human MMP-13, ≥ 1000 nM on aggrecanase-1 and ≥ 10000 nM on MMP-1.

`O=C(O)C1(NS(=O)(=O)c2ccc(-c3cc(C(F)(F)F)on3)s2)C2CCC(O)c3ccccc3C21` (stereo not drawn) [Example 2-437]: the 50% inhibitory concentration (IC50) at Recombinant Human MMP-13 is < 100 nM; at aggrecanase-1 it was < 100 nM; on MMP-1, < 1000 nM.

With `O=C(O)C1(NS(=O)(=O)c2ccc(-c3cc(C(F)(F)F)on3)s2)C2CCC(O)c3ccccc3C21` (stereo not drawn) [Example 2-438], the IC50 on Recombinant Human MMP-13 was < 100 nM; on aggrecanase-1, < 100 nM; on MMP-1, < 1000 nM.

For the molecule `CC(=O)N1CCC2C(c3ccccc31)C2(NS(=O)(=O)c1ccc(-c2ccc(Cl)cc2)s1)C(=O)O` (stereo not drawn) [Example 2-439], the IC50 was < 100 nM on Recombinant Human MMP-13, < 100 nM at aggrecanase-1 and ≥ 1000 nM on MMP-1.

As for `CS(=O)(=O)CC1(c2ccccc2)CC1(NS(=O)(=O)c1ccc(-c2ccc(Cl)cc2)s1)C(=O)O` (stereo not drawn) [Example 2-440], the IC50 at Recombinant Human MMP-13 is < 1000 nM; on aggrecanase-1 it was < 1000 nM; on MMP-1, ≥ 10000 nM.

As for `CC1[C@H](c2ccccc2)[C@]1(NS(=O)(=O)N1CC=C(c2ccc(Cl)cc2)CC1)C(=O)O` (stereo partly drawn) [Example 2-441], the results for the IC50 at Recombinant Human MMP-13, at aggrecanase-1 and at MMP-1 were < 100 nM, < 100 nM and ≥ 1000 nM, respectively.

With `CC1CCC(N2CCN(S(=O)(=O)N[C@@]3(C(=O)O)C(C)[C@@H]3c3ccccc3)CC2)CC1` (stereo partly drawn) [Example 2-442], the IC50 on Recombinant Human MMP-13 is ≥ 1000 nM; at aggrecanase-1 it was ≥ 1000 nM; on MMP-1, ≥ 10000 nM.

On to `CC(C)N1CCN(c2ccc(S(=O)(=O)N[C@@]3(C(=O)O)C[C@]3(C)c3ccccc3)s2)CC1` [Example 2-443], for which the IC50 at Recombinant Human MMP-13 is ≥ 1000 nM; at aggrecanase-1, ≥ 1000 nM; on MMP-1 it was ≥ 10000 nM.

With `CC1[C@H](c2ccccc2)[C@]1(NS(=O)(=O)c1ccc(-n2cc(Cl)cn2)s1)C(=O)O` (stereo partly drawn) [Example 2-444], the IC50 is < 100 nM at Recombinant Human MMP-13, < 100 nM on aggrecanase-1 and < 1000 nM on MMP-1.

`CC1[C@H](c2ccccc2)[C@]1(NS(=O)(=O)N1CCn2c(nc3cc(Cl)ccc32)C1)C(=O)O` (stereo partly drawn) [Example 2-445]: the concentration for half-maximal inhibition (IC50) at Recombinant Human MMP-13 was < 1000 nM; at aggrecanase-1, < 1000 nM; on MMP-1 it was ≥ 10000 nM.

The term IC50 denotes the point on the concentration scale where inhibition reaches its midpoint.

For the origin of these results see patent US20080261994A1, “CYCLOPROPANE COMPOUNDS AND PHARMACEUTICAL USE THEREOF” (Japan Tobacco Inc., priority 2003, published 2008).
